Legend:
[1] = test system: High Fat+Streptozotocin Induced Mouse Model; assay: High fat+streptozotocin induced mouse steatohepatitis model; assay type: in vivo, mice; details: for Inhibition Rate (%) on Ballooning Degeneration of Liver Cells: H&E staining score of liver vs model group; for Inhibition Rate (%) on Ballooning Degeneration of Liver Cells / Inhibition Rate (%) on Collagen Accumulation in Liver Tissue / Body Weight / Liver Weight / Liver Weight/Body Weight / Inhibition Rate (%) on Fatty Degeneration: oral once a day for 21 days, compound C 100 mg/kg, telmisartan 50 mg/kg; for Inhibition Rate (%) on Collagen Accumulation in Liver Tissue: Picrosirius red staining score of liver vs model group; for Body Weight / Liver Weight / Liver Weight/Body Weight: at the end of the test; for Body Weight: after fasting; for Inhibition Rate (%) on Fatty Degeneration: oil red O staining score of liver vs model group
Procedure: Pregnant mice were purchased from Shanghai Lingchang Laboratory Animal Co., Ltd. Thirty 2-day-old newborn male mice were chosen for the test. Each mouse was injected with 200 μg of streptozotocin (STZ, purchased from Sigma) and fed a high-fat diet for 2 weeks from 4-week-old to induce a steatohepatitis model. Meanwhile, another ten mice were selected as a normal group where they were fed a normal diet without injection of STZ. After 2 weeks of high-fat diet feeding, the mice were divided into 3 groups according to their body weights and fasting blood glucose levels: a model group, a compound C administration group, and a telmisartan (purchased from TOKYO CHEMICAL) administration group. Each group underwent once-a-day oral administration of the corresponding substance for 21 consecutive days. The body weights of mice were recorded each day (see FIG. 1A and FIG. 1B), and after the final administration, the body weights of mice after fasting were recorded (see Table 2 and FIG. 2A and FIG. 2B). The animals were euthanized, and their liver tissues were harvested. The liver tissues were weighed and subjected to histologic scoring (blind assessment) in respect of ballooning degeneration, fatty degeneration, and collagen accumulation, etc. Histologic changes were assessed by hematoxylin and eosin (H&E) staining, oil red O staining and Picrosirius red staining of the liver tissues, where the H&E staining was used for assessing the ballooning degeneration of liver cells, the oil red O staining was used for reflecting the fatty degeneration of liver and the Picrosirius red staining was used for assessing collagen accumulation. Relevant scores are shown in FIG. 3A, FIG. 3B and FIG. 3C, and inhibition rates of various histologic changes are shown in Table 3.
Scoring criteria: fatty degeneration is scored on a scale from 0 to 3, where lesion area <5% is scored as 0, lesion area of 5-33% is scored as 1, lesion area of 33-66% is scored as 2 and lesion area >66% is scored as 3. Ballooning degeneration of liver cells is scored on a scale from 0 to 2, where no ballooning degeneration is scored as 0, little ballooning degeneration is a scored as 1, and ballooning degeneration of most cells or significant ballooning degeneration is scored as 2. Collagen accumulation is scored on a scale from 0 to 4 with reference to the scoring criteria reported in Brunt E M, et al., Hepatology (2011).
The inhibition rates (%) on fatty degeneration, ballooning degeneration of liver cells and collagen accumulation in liver tissue shown in Table 3 were calculated according to the following formulae, respectively (the normal group was scored as 0): Inhibition rate (%) on fatty degeneration=100%×(the average score of the model group−the average score of the administration group)/(the average score of the model group−the average score of the normal group) Inhibition rate (%) on ballooning degeneration of liver cells=100%×(the average score of the model group−the average score of the administration group)/(the average score of the model group−the average score of the normal group) Inhibition rate (%) on collagen accumulation in liver tissue=100%×(the average score of the model group−the average score of the administration group)/(the average score of the model group−the average score of the normal group)

[2] = test system: High Fat+High Cholesterol+High Sugar+Carbon Tetrachloride Induced Mouse Model; assay: High fat+high cholesterol+high sugar+carbon tetrachloride induced mouse steatohepatitis model; assay type: in vivo, mice; details: three 21-day courses; for Collagen accumulation in liver tissue: Picrosirius red staining; for Collagen accumulation in liver tissue / Serum cholesterol level / Serum low density lipoprotein level: oral once a day, compound C 100 mg/kg, telmisartan 10 mg/kg; for Serum cholesterol level / Serum low density lipoprotein level: vs model group (compound C p<0.05)
Procedure: Mice which were 8-10 weeks old (purchased from Jiangsu GemPharmatech Co., Ltd.) were fed a western diet (a high fat+high cholesterol feed, purchased from Beijing Hfk Bioscience Co., Ltd.) and a high-sugar solution (23.1 g/L D-fructose and 18.9 g/L D-glucose) and injected intraperitoneally with carbon tetrachloride to induce a steatohepatitis model. Starting from day 7 (D7) of western diet+high-sugar solution feeding, the mice were injected intraperitoneally with 0.05 ml of 20% carbon tetrachloride once a week, for 12 weeks. Animals were divided into groups (8 animals in each group) on day 28: a model group (administrated with a vehicle composed of PEG400, Tween-80 and deionized water), a compound C (100 mg/kg) administration group, and a telmisartan (10 mg/kg) administration group. Starting from day 28, the vehicle, compound C and telmisartan were each administered orally once a day, for three 21-day treatment courses at one-week intervals. Meanwhile, a normal control group was set wherein the mice were fed a normal diet combined with normal drinking water. Peripheral blood was taken from animals 2 h after the final administration, and serum was isolated. The animals were euthanized, and their liver tissues were harvested. The serum was mainly used to measure the levels of cholesterol and low density lipoprotein. The liver tissues were stained with Picrosirius red to assess collagen accumulation, and the ratio of endothelial cells to macrophages was measured by flow cytometry to reflect liver damage.

[3] = test system: High Fat+High Cholesterol+Carbon Tetrachloride Induced Mouse Model; assay: High fat+high cholesterol+carbon tetrachloride induced mouse steatohepatitis model; assay type: in vivo, mice; details: oral once a day, three 21-day courses, compound C 100 mg/kg, telmisartan 10 mg/kg; for Collagen accumulation in liver tissue: Picrosirius red staining, vs model group (compound C p<0.01; telmisartan p>0.05); for Serum cholesterol level / Serum low density lipoprotein level: vs model group (compound C p<0.01)
From the text: Mice which were 8-10 weeks old (purchased from Jiangsu GemPharmatech Co., Ltd.) were fed a western diet (a high fat+high cholesterol feed, purchased from Beijing Hfk Bioscience Co., Ltd.) and injected intraperitoneally with carbon tetrachloride to induce a steatohepatitis model. Experimental animals were randomly divided into 3 groups (8 animals in each group) according to their body weights: a model group (administrated with a vehicle composed of PEG400, Tween-80 and deionized water), a compound C (100 mg/kg) administration group, and a telmisartan (10 mg/kg) administration group. Starting from day 5 (D5) of western diet feeding, each group underwent an intraperitoneal injection of 0.05 ml of 20% CCl4 once a week, for 12 weeks. Starting from day 21, the vehicle, compound C and telmisartan were each administered orally once a day, for three 21-day treatment courses at one-week intervals. Meanwhile, a normal control group was set wherein the mice were fed a normal diet combined with normal drinking water. Peripheral blood was taken from animals 2 h after the final administration, and serum was isolated. The animals were euthanized and their liver tissues were harvested. The serum was mainly used to measure the levels of cholesterol and low density lipoprotein. The liver tissues were stained with Picrosirius red to assess collagen accumulation.

[4] = test system: Carbon Tetrachloride Induced Mouse Model; assay: Carbon tetrachloride induced mouse model; assay type: in vivo, mice; details: Picrosirius red staining
Procedure: Mice which were 8-10 weeks old (purchased from Jiangsu GemPharmatech Co., Ltd.) were randomly divided into 4 groups (8 animals in each group) according to their body weights: a model group (administrated with a vehicle, 0.5% CMC-Na), a compound C (300 mg/kg) administration group, a compound C (100 mg/kg) administration group, and a telmisartan (10 mg/kg) administration group. Each mouse was injected intraperitoneally with 0.05 ml of 40% CCl4 twice a week, for 6 consecutive weeks. Starting from day 15, each group underwent an intragastric administration of the corresponding substance once a day, for 28 consecutive days. Meanwhile, a normal control group was set wherein the mice in this group were fed a normal diet combined with normal drinking water. Animals were euthanized 2 h after the final administration, and their liver tissues were harvested and stained with Picrosirius red to assess collagen accumulation.

[5] = test system: High Fat+High Cholesterol Diet and N-Diethylnitrosamine Induced Rat Model; assay: High fat+high cholesterol diet and N-diethylnitrosamine induced rat model, NAS scoring; assay type: in vivo, SD rats; details: compound C administration groups (50 mg/kg and 100 mg/kg), intragastric once a day for 49 days; H&E staining; model group score 6
Procedure: Pregnant SD rats were purchased from Shanghai Jihui Laboratory Animal Care Co., Ltd, and neonatal rats obtained therefrom were used in this study. Forty male neonatal rats were chosen to receive a single injection of N-diethylnitrosamine (DEN, purchased from Sigma) at 2 weeks of age. After the neonatal rats were fed rat milk for 2 weeks, they were randomly divided into 4 groups (10 animals in each group) according to their body weights: a model group (0.5% CMC-Na), a compound C (50 mg/kg) administration group, a compound C (100 mg/kg) administration group, and an obeticholic acid (OCA, purchased from WuXi AppTec (Wuhan), 30 mg/kg) administration group. Each neonatal rat was fed a western diet (a high fat+high cholesterol feed, purchased from Trophic Animal Feed High-Tech Co., Ltd, China, Su Si certificate (2014) No. 06092) for 8 weeks. Meanwhile, another 8 male neonatal rats were selected as a normal group, which were fed rat milk for 4 weeks and then fed a normal diet instead of the high fat+high cholesterol diet. Starting from day 8 of high fat+high cholesterol diet feeding, the vehicle (0.5% CMC-Na), compound C and OCA were each administrated intragastrically once a day, for 49 consecutive days.
Animals were euthanized 2 h after the final administration, and their liver tissues were harvested. […]

Cn1c(C(=O)N2CC(F)(F)C2)cc2ccc(-c3nccc(Nc4ccc(-c5cn[nH]c5)cc4)n3)cc21 [Compound C]
Therapeutic effect (fatty degeneration, ballooning degeneration, collagen accumulation of liver tissue) ([1]; 100 mg/kg oral once a day for 21 days): significant therapeutic effects | Inhibition Rate (%) on Ballooning Degeneration of Liver Cells [1]: 60.00% | Inhibition Rate (%) on Collagen Accumulation in Liver Tissue [1]: 44.44% | Body Weight [1]: 17.1 ± 0.59 g | Liver Weight [1]: 872.3 ± 17.91 mg | Liver Weight/Body Weight [1]: 5.1 ± 0.15% | Inhibition Rate (%) on Fatty Degeneration [1]: 66.67% | Collagen accumulation in liver tissue ([2]; vs model group (p<0.01)): significantly reduced | Proportion of endothelial cells in liver tissue ([2]; flow cytometry, vs model group (p<0.01), compound C 100 mg/kg oral once a day): increased | Proportion of macrophages in liver tissue ([2]; flow cytometry, vs model group, compound C 100 mg/kg oral once a day): reduced at a certain extent | Serum cholesterol level [2]: significantly reduced | Serum low density lipoprotein level [2]: significantly reduced | Collagen accumulation in liver tissue [3]: significantly reduced | Serum cholesterol level [3]: significantly reduced | Serum low density lipoprotein level [3]: significantly reduced | Collagen accumulation in liver tissue ([4]; 100 mg/kg intragastric once a day for 28 days, vs model group (p<0.001)): significantly reduced | Collagen accumulation in liver tissue ([4]; 300 mg/kg intragastric once a day for 28 days, vs model group (p<0.001)): significantly reduced | NAS score of liver tissue [5]: about 4.2

CCCc1nc2c(C)cc(-c3nc4ccccc4n3C)cc2n1Cc1ccc(-c2ccccc2C(=O)O)cc1 [Telmisartan, telmisartan, reference compound]
Inhibition Rate (%) on Ballooning Degeneration of Liver Cells [1]: 11.12% | Inhibition Rate (%) on Collagen Accumulation in Liver Tissue [1]: 38.27% | Body Weight [1]: 15.7 ± 0.84 g | Liver Weight [1]: 760.1 ± 48.78 mg | Liver Weight/Body Weight [1]: 4.9 ± 0.39% | Inhibition Rate (%) on Fatty Degeneration [1]: −11.17% | Collagen accumulation in liver tissue ([2]; vs model group (p<0.01)): significantly reduced | Serum cholesterol level [2]: no effect | Serum low density lipoprotein level [2]: no effect | Collagen accumulation in liver tissue [3]: not inhibited | Serum cholesterol level [3]: no effect | Serum low density lipoprotein level [3]: no effect | Collagen accumulation in liver tissue ([4]; 10 mg/kg intragastric once a day for 28 days, vs model group (p>0.05)): not inhibited
